# Biological target: T1, human LPAAT-β (Homo sapiens, UniProt O15120)
# T1 construct: the full-length human LPAAT-β cDNA was amplified by PCR; poly-histidine tag (N); made in house; host or cells: Sf9 insect cells (baculovirus, pFastBac HTc); the membrane fraction was used as the enzyme
# T1 sequence (O15120 24-278): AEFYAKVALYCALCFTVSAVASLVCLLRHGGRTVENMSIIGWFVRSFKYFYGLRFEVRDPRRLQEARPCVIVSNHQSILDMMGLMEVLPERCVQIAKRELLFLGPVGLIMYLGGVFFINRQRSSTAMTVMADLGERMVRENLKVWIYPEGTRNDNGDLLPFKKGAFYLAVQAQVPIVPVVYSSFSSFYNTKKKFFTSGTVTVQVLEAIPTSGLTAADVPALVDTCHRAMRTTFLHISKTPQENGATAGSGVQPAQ
# Test: LPAAT-β cell-free assay
# Assay type: biochemical
# Settings: Sf9 cell membrane overexpressing recombinant LPAAT-β
# Summary of the method: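 Membranes from Sf9 cells expressing His/myc-tagged full-length human LPAAT-β were used in HEPES-saline pH 7.5 with 1 mg/ml BSA. Compound was added from a 200 μM DMSO stock, and reaction with 18:1-CoA and sn-1-18:1 lysoPA (1 mM stocks) ran 25 min at RT. Released CoA was detected with DTNB at 405 nm; a radiometric variant used 200 μM [14C]18:1-CoA and 200 μM lysoPA.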
row,SMILES,IC50 [nM]
1,"CCOc1ccc(Br)cc1-c1cc(Nc2ccc(C(O)C(F)(F)F)cc2)nc(N)n1 (stereo not shown) [Example 129, 1-{4-[2-Amino-6-(5-bromo-2-ethoxy-phenyl)-pyrimidin4-ylamino]-phenyl}-2,2,2-trifluoro-ethanol]",14
2,"CCOc1ccc(Br)cc1-c1cc(Nc2ccc(C(C)=NO)cc2)nc(N)n1 [Example 130, 1-{4-[2-Amino-6-(5-bromo-2-ethoxy-phenyl)-pyrimidin4-ylamino]-phenyl}-ethanone-oxime]",84
3,"CCOc1ccc(Br)cc1-c1cc(Nc2ccc(C(=O)C(F)(F)F)cc2)nc(N)n1 [Example 131, 1-{4-[2-Amino-6-(5-bromo-2-ethoxy-phenyl)-pyrimidin-4-ylamino]-phenyl}-2,2,2-trifluoro-ethanone]",12
4,"CCOc1ccc(Br)cc1-c1cc(Nc2ccc(C)c(C)c2)nc(N)n1 [Example 132, 6-(5-Bromo-2-ethoxy-phenyl)-N*4*-(3,4-dimethyl-phenyl)-pyrimidine-2,4-diamine]",140
5,"CCOc1ccc(Br)cc1-c1cc(Nc2ccc([N+](=O)[O-])cc2)nc(N)n1 [Example 133, 6-(5-Bromo-2-ethoxy-phenyl)-N*4*-(4-nitro-phenyl)-pyrimidine-2,4-diamine]",15
6,CCOc1ccc(Br)cc1-c1cc(Nc2ccc(C(C)O)cc2)nc(N)n1 (stereo not shown) [Example 134],110
7,"CCCOc1ccc(Br)cc1-c1cc(Nc2ccc(Cl)cc2)nc(N)n1 [Example 135, 6-(5-Bromo-2-propoxy-phenyl)-N*4*-(4-chloro-phenyl)-pyrimidine-2,4-diamine]",8
8,"CC(C)Oc1ccc(Br)cc1-c1cc(Nc2ccc(Cl)cc2)nc(N)n1 [Example 136, 6-(5-Bromo-2-isopropoxy-phenyl)-N*4*-(4-chloro-phenyl)-pyrimidine-2,4-diamine]",170
9,"CCOc1ccc(Br)cc1-c1cc(Nc2ccc(C(C)OC)cc2)nc(N)n1 (stereo not shown) [Example 137, 6-(5-Bromo-2-ethoxy-phenyl)-N*4*-[4-(1-methoxy-ethyl)-phenyl]-pyrimidin-2,4-diamine]",260
10,"CCOc1ccc(Br)cc1-c1cc(Nc2cccc(C(N)=O)c2)nc(N)n1 [Example 138, 3-[2-Amino-6-(5-Bromo-2-ethoxy-phenyl)-pyrimidin-4yl-amino]-benzamide]",950
11,"CC(=O)c1ccc(Nc2cc(-c3cccc(Cl)c3)nc(N)n2)cc1 [Example 139, 1-{4-[2-Amino-6-(3-chloro-phenyl)-pyrimidin-4-ylamino]-phenyl}-ethanone]",340
12,"CCOc1ccc(I)cc1-c1cc(Nc2ccc(N=[N+]=[N-])cc2)nc(N)n1 [Example 140, N*4*-{4-Azido-phenyl)-6-(2-ethoxy-5-iodo-phenyl)-pyrimidine-2,4-diamine]",100
13,"CC(C)Oc1ccc(Br)cc1-c1cc(Nc2ccc(CCO)cc2)nc(N)n1 [Example 141, 2-{4-[2-Amino-6-(5-bromo-2-isopropoxy-phenyl)-pyrimidin-4-ylamino]-phenyl}-ethanol]",390
14,"COc1ccc(Br)cc1-c1cc(Nc2ccc(Cl)cc2)nc(N)n1 [Example 142, 6-(5-Bromo-2-methoxy-phenyl)-N*4*-(4-chloro-phenyl)-pyrimidine-2,4-diamine]",18
15,"COCCOc1ccc(Br)cc1-c1cc(Nc2ccc(Cl)cc2)nc(N)n1 [Example 143, 6-[5-Bromo-2-(2-methoxy-ethoxy)-phenyl]-N*4*-(4-chloro-phenyl)-pyrimidine-2,4-diamine]",22
16,"CCOc1ccc(Br)cc1-c1cc(Nc2cnc3ccccc3c2)nc(N)n1 [Example 144, 6-(5-Bromo-2-ethoxy-phenyl)-N*4*-quinolin-3-yl-pyrimidine-2,4-diamine]",460
17,"CCCCCCOc1ccc(Br)cc1-c1cc(Nc2ccc(Cl)cc2)nc(N)n1 [Example 145, 6-(5-Bromo-2-hexyloxy-phenyl)-N*4*-(4-chloro-phenyl)-pyrimidine-2,4-diamine]",5
18,"Nc1nc(Nc2ccc(Cl)cc2)cc(-c2cc(Br)ccc2OCc2ccccc2)n1 [Example 146, 6-(2-Benzyloxy-5-bromo-phenyl)-N*4*-(4-chloro-phenyl)-pyrimidine-2,4-diamine]",3
19,"CC(=NO)c1ccc(Nc2cc(-c3cc(Cl)cc(Cl)c3Cl)nc(N)n2)cc1 [Example 147, 1-{4-[2-Amino-6-(2,3,5-trichloro-phenyl)-pyrimidin-4-ylamino]-phenyl}-ethanone oxime]",390
20,"CCCCOc1ccc(Br)cc1-c1cc(Nc2ccc(Cl)cc2)nc(N)n1 [Example 148, 6-(5-Bromo-2-butoxy-phenyl)-N*4*-(4-chloro-phenyl)-pyrimidine-2,4-diamine]",5
21,"Nc1nc(Nc2ccc(Cl)cc2)cc(-c2cc(Br)ccc2OCCN2CCOCC2)n1 [Example 149, 6-[5-Bromo-2-(2-morpholin4-yl-ethoxy)-phenyl]-N*4*-(4-chloro-phenyl)-pyrimidine-2,4-diamine]",71
22,"COc1ccc(Br)cc1-c1cc(Nc2ccc(C(F)(F)F)cc2)nc(N)n1 [Example 150, 6-(5-Bromo-2-methoxy-phenyl)-N*4*-(4-trifluoromethyl-phenyl)-pyrimidine-2,4-diamine]",100

# Results, then the compound that gave them:
row,IC50 [nM],SMILES
1,55,"COc1ccc(Br)cc1-c1cc(Nc2ccc(CCO)cc2)nc(N)n1 [Example 151, 2-{4-[2-Amino-6-(5-bromo-2-methoxy-phenyl)-pyrimidin-4-ylamino]-phenyl}-ethanol]"
2,240,"Nc1nc(Nc2ccc(Cl)cc2)cc(-c2ccccc2Oc2ccccc2)n1 [Example 152, N*4*-(4-Chloro-phenyl)-6-(2-phenoxy-phenyl)-pyrimidin-2,4-diamine]"
3,6,"Nc1nc(Nc2ccc(C(F)(F)F)cc2)cc(-c2cc(Br)ccc2OCc2ccccc2)n1 [Example 153, 6-(2-Benzyloxy-5-bromo-phenyl)-N*4*-(4-trifluoromethyl-phenyl)-pyrimidine-2,4-diamine]"
4,98,"CC(=NO)c1ccc(Nc2cc(-c3cc(Cl)ccc3Cl)nc(N)n2)cc1 [Example 154, 1-{4-[2-Amino-6-(2,5-dichloro-phenyl)-pyrimidin-4-yl-amino]-phenyl}-ethanone oxime]"
5,4,"Nc1nc(Nc2ccc(Cl)cc2)cc(-c2cc(Cl)ccc2OCc2ccccc2)n1 [Example 155, 6-(2-Benzyloxy-5-chloro-phenyl)-N*4*-(4-chloro-phenyl)-pyrimidine-2,4-diamine]"
6,1400,"CN(C)CCCOc1ccc(Br)cc1-c1cc(Nc2ccc(Cl)cc2)nc(N)n1 [Example 156, 6-[5-Bromo-2-(3-dimethylamino-propoxy)-phenyl]-N*4*-(4-chloro-phenyl)-pyrimidine-2,4-diamine]"
7,16,"Nc1nc(Nc2ccc(CCO)cc2)cc(-c2cc(Cl)ccc2OCc2ccccc2)n1 [Example 158, 2-[4-{2-Amino-6-(2-benzyloxy-5-chloro-phenyl)-pyrimidin4-ylamino]-phenyl}-ethanol]"
8,200,"CCOc1ccc(Br)cc1-c1cc(Nc2ccc(B(O)O)cc2)nc(N)n1 [Example 159, 4-[2-Amino-6-(5-bromo-2-ethoxy-phenyl)-pyrimidin-4-ylamino]-phenyl-boronic acid]"
9,38,"COc1ccc(Br)cc1-c1cc(Nc2ccc(C#N)cc2)nc(N)n1 [Example 160, 4-[2-Amino-6-(5-bromo-2-methoxy-phenyl)-pyrimidin4-ylamino]-benzonitrile]"
10,14,"COc1ccc(Br)cc1-c1cc(Nc2ccc([N+](=O)[O-])cc2)nc(N)n1 [Example 161, 6-(5-Bromo-2-methoxy-phenyl)-N*4*-(4-nitro-phenyl)-pyrimidine-2,4-diamine]"
11,36,"COc1ccc(Br)cc1-c1cc(Nc2ccc(Br)cc2)nc(N)n1 [Example 162, 6-(5-Bromo-2-methoxy-phenyl)-N*4*-(4-bromo-phenyl)-pyrimidine-2,4-diamine]"
12,310,"CCc1ccc(Cl)cc1-c1cc(Nc2ccc(Br)cc2)nc(N)n1 [Example 163, N*4*-(4-Bromo-phenyl)-6-(5-chloro-2-ethyl-phenyl)-pyrimidine-2,4-diamine]"
13,670,"CCc1ccc(Cl)cc1-c1cc(Nc2ccc(C(F)(F)F)cc2)nc(N)n1 [Example 164, 6-(5-Chloro-2-ethyl-phenyl)-N*4*-(4-trifluoromethyl-phenyl)-pyrimidine-2,4-diamine]"
14,3,"Nc1nc(Nc2ccc(Cl)cc2)cc(-c2cc(Br)ccc2OCc2ccc(Cl)cc2)n1 [Example 165, 6-[5-Bromo-2-(4-chloro-benzyloxy)-phenyl]-N*4*-(4-chloro-phenyl)-pyrimidine-2,4-diamine]"
15,5,"Nc1nc(Nc2ccc(Cl)cc2)cc(-c2cc(Br)ccc2OCCc2ccccc2)n1 [Example 166, 6-(5-Bromo-2-phenethyloxy-phenyl)-N*4*-(4-chloro-phenyl)-pyrimidine-2,4-diamine]"
16,180,"CCc1ccc(Cl)cc1-c1cc(Nc2ccc(Cl)cc2)nc(N)n1 [Example 167, 6-(5-Chloro-2-ethyl-phenyl)-N*-4*-(4-chloro-phenyl)-pyrimidine-2,4-diamine]"
17,16,"Nc1nc(Nc2ccc(Cl)cc2)cc(-c2cc(Cl)ccc2OCC2CCCCC2)n1 [Example 168, 6-(5-Chloro-2-cyclohexylmethoxy-phenyl)-N*4*-(4-chloro-phenyl)-pyrimidine-2,4-diamine]"
18,93,"CCc1ccc(Cl)cc1-c1cc(Nc2ccc([N+](=O)[O-])cc2)nc(N)n1 [Example 169, 6-(5-Chloro-2-ethyl-phenyl)-N*-4*-(4-nitro-phenyl)-pyrimidine-2,4-diamine]"

# Reference: patent publication US7419984B2, “Pyrimidines and uses thereof” (Cell Therapeutics, Inc., priority 2002, dated 2008)
